A short description of experiment [1]: Inhibition of Human respiratory syncytial virus A2 Fusion protein expressed in Hep2 cells assessed as reduction in virus-induced cytopathic effect after 4 days by XTT assay. For orientation: Protection from cytopathic effect is a common read-out in antiviral testing.
Experiment [2] in a line: Inhibition of Human respiratory syncytial virus Fusion protein D486N mutant expressed in Hep2 cells assessed as reduction in virus-induced cytopathic effect after 4 days by XTT assay.

What is called EC50 is the concentration at which the effect is half-maximal. Regarding `CC[C@H]1c2cc3nc(N4CC[C@H](N)C4)c(C)c(n3n2)NCCCCOc2ccc(C)cc2C(=O)N1C`, the EC50 in experiment [1] was 1.4 nM; in experiment [2] it was above 1000 nM.
Turning to `CC[C@H]1c2cc3nc(N4CC[C@H](N)C4)cc(n3n2)N(C)CCCCOc2ccc(C)cc2C(=O)N1C`, the EC50 in experiment [1] amounted to 0.66 nM; in experiment [2], 440 nM.
As for `CC[C@H]1c2cc3nc(N4CC[C@H](N)C4)cc(n3n2)NCCCCOc2ccc(C)cc2C(=O)N1C`, the EC50 in experiment [1] was 61 nM; in experiment [2] it was above 1000 nM.
Consider `CC[C@@H](c1cc2nc(N3CC[C@H](N)C3)c(C)cn2n1)N(C)C(=O)c1cc(C)ccc1OC`, for which the EC50 was 3.8 nM in experiment [1] and above 1000 nM in experiment [2].
The corresponding values for `CC[C@H]1c2cc3nc(N4CC[C@H](N)C4)c(C)c(n3n2)N(C)CCCCOc2ccc(C)cc2C(=O)N1C` are 8.1 nM and above 1000 nM.
For the compound `CC[C@H]1c2cc3nc(N4CC[C@H](N)C4)cc(n3n2)N(C)CCCCCOc2ccc(C)cc2C(=O)N1C`, the figures for the EC50 in experiment [1] and in experiment [2] were 6.2 nM and above 1000 nM, respectively.
As to `CC[C@H]1c2cc3nc(N4CC[C@H](N)C4)cc(n3n2)N(C)CCCCCCOc2ccc(C)cc2C(=O)N1C`, the EC50 in experiment [1] is 54 nM; in experiment [2], above 1000 nM.
The corresponding values for `Cc1ccc2c(c1)C(=O)N1CCCC[C@H]1c1cc3nc(N4CC[C@H](N)C4)cc(n3n1)N(C)CCCCO2` are 2 nM and 8.1 nM.
In the case of `CC[C@H]1c2cc3nc(N4CC[C@H](N)C4)cc(n3n2)N(C)CCCOc2ccc(C)cc2C(=O)N1C`, the EC50 in experiment [1] was 17 nM; in experiment [2], above 1000 nM.

These data come from BindingDB's records for doi:10.1021/acsmedchemlett.0c00008 (Taisho Pharmaceutical, 2020).
